Drawing on ChEMBL document CHEMBL4477224, “Antidiabetic effect, antioxidant activity, and toxicity of 3',4'-Di-O-acetyl-cis-khellactone in Streptozotocin-induced diabetic rats” (Bioorg Med Chem Lett, 2016), this text covers Ratio, Activity and LD50 for five compounds.

Series [1] is described as follows: Mutagenicity in Salmonella typhimurium TA98 assessed as mutagenic index at 0.005 uM/plate after 48 hrs in presence of S9 fraction by Ames test relative to control. The series is classed as toxicity, subcellular. Particulars: salmonella enterica subsp. enterica serovar typhimurium, s9, 48 h. (In general: The Ames test uses bacterial strains that need an amino acid and regain growth without it when mutated back.)

Series [2] in a line: Mutagenicity in Salmonella typhimurium TA102 assessed as mutagenic index at 0.005 uM/plate after 48 hrs in presence of S9 fraction by Ames test relative to control. Particulars: salmonella enterica subsp. enterica serovar typhimurium, s9, 48 h. The series is classed as toxicity, subcellular.
Series [3] is described as follows: Mutagenicity in Salmonella typhimurium TA100 assessed as mutagenic index at 0.005 uM/plate after 48 hrs in presence of S9 fraction by Ames test relative to control. The following applies: salmonella enterica subsp. enterica serovar typhimurium, s9, 48 h. In kind it is toxicity, subcellular.
Series [4] relates to Rattus norvegicus. Description: Antidiabetic activity in STZ-induced diabetic albino Wistar rat assessed as increase in body weight at 100 mg/kg, po administered for 45 days relative to control. In kind it is functional.
The nature of series [5]: Mutagenicity in Salmonella typhimurium TA98 assessed as mutagenic index at 0.19 uM/plate after 48 hrs in absence of S9 fraction by Ames test relative to control. The series is classed as toxicity. The following applies: salmonella enterica subsp. enterica serovar typhimurium, s9, 48 h.
Series [6] has as its system Rattus norvegicus. Description: Antioxidant activity in STZ-induced diabetic Wistar rat liver assessed as catalase level measured as H2O2 consumption per mg of protein at 2.5 mg/kg, po administered for 15 days (reference value: 68.9 +/- 11.1 microM/min). The series is classed as functional.
The subject of series [7] is Rattus norvegicus. Description: Antidiabetic activity in STZ-induced diabetic Wistar rat assessed as change in fasting blood glucose level at 2.5 mg/kg, po administered for 7 days post STZ challenge measured on day 14 by glucometry (reference value: 63.75 +/- 7.3 mg/dl). The series is classed as functional.
Series [8] concerns Rattus norvegicus. Description: Antioxidant activity in STZ-induced diabetic Wistar rat liver assessed as glutathione peroxidase level measured as NADPH consumption per mg of protein at 2.5 mg/kg, po administered for 15 days (reference value: 10 +/- 0.6 microM/min). The series is classed as functional.
Series [9] deals with Rattus norvegicus. Description: Antidiabetic activity in STZ-induced diabetic Wistar rat assessed as body weight at 2.5 mg/kg, po administered for 15 days post STZ challenge measured on day 21 (reference value: 330.7 +/- 9.2 g). In kind it is functional.
Series [10] concerns Rattus norvegicus. Description: Antidiabetic activity in STZ-induced diabetic Wistar rat assessed as change in fasting blood glucose level at 2.5 mg/kg, po administered on day 7 post STZ challenge measured immediately post dosage by glucometry (reference value: 63.75 +/- 7.3 mg/dl). The series is classed as functional.
The subject of series [11] is Rattus norvegicus. Description: Antidiabetic activity in STZ-induced diabetic Wistar rat blood assessed as cholesterol level at 2.5 mg/kg, po administered for 15 days (reference value: 80.09 +/- 9.35 mg/dl). The series is classed as functional.
The test system of series [12] is Rattus norvegicus. Description: Antidiabetic activity in STZ-induced diabetic Wistar rat blood assessed as urea level at 2.5 mg/kg, po administered for 15 days (reference value: 62.98 +/- 6.21 mg/dl). The series is classed as functional.
Series [13] relates to Rattus norvegicus. Description: Antidiabetic activity in STZ-induced diabetic Wistar rat assessed as decrease in blood glucose level at 2.5 mg/kg, po administered for 15 days post STZ challenge measured on day 21 by glucometry relative to control. In kind it is functional. Details: scale not given: the % may be the effect or the level left.
For series [14], the system named is Rattus norvegicus. Description: Antidiabetic activity in STZ-induced diabetic Wistar rat blood assessed as LDL level at 2.5 mg/kg, po administered for 15 days (reference value: 23.11 +/- 9.82 mg/dl). The series is classed as functional.
The subject of series [15] is Rattus norvegicus. Description: Antidiabetic activity in STZ-induced diabetic Wistar rat assessed as increase in fasting blood glucose level at 2.5 mg/kg, po administered for 15 days post STZ challenge measured on day 21 by glucometry. In kind it is functional.
In series [16] the test system is Rattus norvegicus. Description: Antioxidant activity in STZ-induced diabetic Wistar rat liver assessed as SOD level measured per mg of protein at 2.5 mg/kg, po administered for 15 days by NBT reduction test (reference value: 0.22 +/- 0.06 microM/min). The series is classed as functional.
The test system of series [17] is Rattus norvegicus. Description: Antidiabetic activity in STZ-induced diabetic Wistar rat assessed as change in fasting blood glucose level at 2.5 mg/kg, po administered for 15 days post STZ challenge measured on day 21 by glucometry (reference value: 63.75 +/- 7.3 mg/dl). In kind it is functional.
Series [18] has as its system Rattus norvegicus. Description: Antidiabetic activity in STZ-induced diabetic Wistar rat assessed as body weight at 2.5 mg/kg, po administered on day 7 post STZ challenge measured immediately post dosage (reference value: 330.7 +/- 9.2 g). In kind it is functional.
For series [19], the system named is Rattus norvegicus. Description: Antidiabetic activity in STZ-induced diabetic Wistar rat blood assessed as creatinine level at 2.5 mg/kg, po administered for 15 days (reference value: 0.56 +/- 0.03 mg/dl). The series is classed as functional.
Series [20] has as its system Rattus norvegicus. Description: Antidiabetic activity in STZ-induced diabetic Wistar rat assessed as effect on hepatocytes surrounding central vein architecture at 2.5 mg/kg, po administered for 15 days by hematoxylin/eosin staining based microscopy. In kind it is functional, organism-based.
Series [21] concerns Rattus norvegicus. Description: Antidiabetic activity in STZ-induced diabetic Wistar rat blood assessed as HDL level at 2.5 mg/kg, po administered for 15 days (reference value: 36.31 +/- 0.51 mg/dl). The series is classed as functional.
The subject of series [22] is Rattus norvegicus. Description: Antidiabetic activity in STZ-induced diabetic Wistar rat assessed as increase in body weight at 2.5 mg/kg, po administered for 15 days post STZ challenge measured on day 21. The series is classed as functional.
Series [23] relates to Rattus norvegicus. Description: Antidiabetic activity in STZ-induced diabetic Wistar rat liver assessed as effect on central vein architecture at 2.5 mg/kg, po administered for 15 days by hematoxylin/eosin staining based microscopy. The series is classed as functional, organism-based.
The nature of series [24]: Toxicity in DBA/2J mouse assessed as mortality. The following applies: in vivo.

The source made the active and inactive calls. No cut-off for these calls is given here.

For the compound `Nc1ccc2cc3ccccc3cc2c1` [2-AMINOANTHRACENE], the Ratio in series [1] is on record as 54.1; in [2], 3.5; in [3], 19.1.
For `C[C@@H]1O[C@@H](OC[C@H]2O[C@@H](Oc3c(-c4ccc(O)c(O)c4)oc4cc(O)cc(O)c4c3=O)[C@H](O)[C@@H](O)[C@@H]2O)[C@H](O)[C@H](O)[C@H]1O` [RUTIN], the Activity with Rattus norvegicus [4] was determined as 12.1%.
Turning to `CC1=NN(c2ccc([N+](=O)[O-])cc2)C(=O)C1[N+](=O)[O-]` (centres undefined), the Ratio in [5] was 27.3.
As to `COc1ccc(Cl)cc1C(=O)NCCc1ccc(S(=O)(=O)NC(=O)NC2CCCCC2)cc1` [GLYBURIDE], the Activity with Rattus norvegicus [6] amounted to 93.2 µM/min; in the series with Rattus norvegicus [7], 282.8 mg/dL; with Rattus norvegicus [8] it was 48.75 µM/min; in the series with Rattus norvegicus [9] it was 385.5 g; in the series with Rattus norvegicus [10], 211.7 mg/dL; in the series with Rattus norvegicus [11], 70.64 mg/dL. Also, the Activity is 58.43 mg/dL in the series on Rattus norvegicus [12]; 56.6% with Rattus norvegicus [13]; 21.71 mg/dL with Rattus norvegicus [14]; 78.25 mg/dL in the series with Rattus norvegicus [15]; 0.55 U/min in the series on Rattus norvegicus [16]; 142 mg/dL in the series with Rattus norvegicus [17]. In addition, the Activity was 341.4 g in the series with Rattus norvegicus [18], 0.62 mg/dL with Rattus norvegicus [19], 26.6 mg/dL in the series with Rattus norvegicus [21] and 54.8 g with Rattus norvegicus [22]. The outcome with Rattus norvegicus [20] and in the series on Rattus norvegicus [23] was Active.
As usually defined, the LD50 is the dose expected to kill half of the subjects tested. Turning to `O=c1ccc2ccccc2o1` [COUMARIN], the LD50 in series [24] was above 700 mg/kg.
